According to ChEMBL document CHEMBL1201862, “PubChem BioAssay data set” (2004):
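Values below derive from 48-hour exposures of cells grown in 96-well plates, with endpoints linearly interpolated between the two concentrations bracketing the appropriate inhibition level. GI50 is the concentration that inhibits growth by half.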 Active and inactive are the calls of the source. Cut-off read from the data, not from the text of the source: active = GI50 up to about 1.1 µM and inactive = higher.

Experiments:
Experiment in all cases: DTP human tumour cell line panel, 48 h
[1] = tested on: A498
[2] = tested on: SK-OV-3
[3] = tested on: A549
[4] = tested on: HCC 2998
[5] = tested on: U-251
[6] = tested on: M14
[7] = tested on: EKVX
[8] = tested on: HCT-116
[9] = tested on: SK-MEL-5
[10] = tested on: TK-10
[11] = tested on: HOP-62
[12] = tested on: HOP-92
[13] = tested on: LOX IMVI
[14] = tested on: MDA-MB-435
[15] = tested on: HCT-15
[16] = tested on: NCI-H460
[17] = tested on: SN12C
[18] = tested on: SNB-75
[19] = tested on: OVCAR-5
[20] = tested on: HT-29
[21] = tested on: SF-539
[22] = tested on: RPMI-8226
[23] = tested on: PC-3
[24] = tested on: ACHN
[25] = tested on: HL-60
[26] = tested on: T47D
[27] = tested on: 786-0
[28] = tested on: NCI/ADR-RES
[29] = tested on: BT-549
[30] = tested on: COLO 205
[31] = tested on: Malme-3M
[32] = tested on: K562
[33] = tested on: NCI-H23
[34] = tested on: CAKI-1
[35] = tested on: CCRF-CEM
[36] = tested on: SK-MEL-2
[37] = tested on: SF-295
[38] = tested on: RXF 393
[39] = tested on: UO-31
[40] = tested on: MDA-N
[41] = tested on: SF-268
[42] = tested on: Hs-578T
[43] = tested on: SNB-19
[44] = tested on: OVCAR-3
[45] = tested on: SK-MEL-28
[46] = tested on: MDA-MB-231
[47] = tested on: MCF7
[48] = tested on: SR
[49] = tested on: UACC-257
[50] = tested on: NCI-H226
[51] = tested on: OVCAR-4
[52] = tested on: SW-620
[53] = tested on: NCI-H522
[54] = tested on: UACC-62
[55] = tested on: IGROV-1
[56] = tested on: MOLT-4
[57] = tested on: DU-145
[58] = tested on: KM12
[59] = tested on: OVCAR-8

Measured: GI50

COc1cc(/C=C2/CCCc3ccccc3C2=O)cc(OC)c1OC
12.6 µM: [15]
inactive: [1] 7.89 µM | [2] 25.5 µM | [3] 27 µM | [4] 22.5 µM | [5] 15.5 µM | [6] 18.7 µM | [7] 17.6 µM | [8] 6.65 µM | [9] 3.27 µM | [10] 22.5 µM | [11] 24.2 µM | [12] 14.8 µM | [13] 15.4 µM | [14] 7.85 µM | [16] 20.8 µM | [17] 15.1 µM | [18] 12.4 µM | [19] 30.6 µM | [20] 17.5 µM | [21] 18.6 µM | [22] 2.63 µM | [23] 10.1 µM | [24] 15.8 µM | [25] 2.72 µM | [26] 5.92 µM | [27] 18.3 µM | [28] 9.2 µM | [29] 13.8 µM | [30] 18.2 µM | [31] 12.7 µM | [32] 2.65 µM | [33] 18.4 µM | [34] 18.8 µM | [35] 4.19 µM | [36] 20.6 µM | [37] 18.4 µM | [38] 28.9 µM | [39] 14.6 µM | [40] 9.53 µM | [41] 14.7 µM | [42] 18.2 µM | [43] 32.5 µM | [44] 19.2 µM | [45] 22 µM | [46] 15.6 µM | [47] 9.79 µM | [48] 2.74 µM | [49] 12.9 µM | [50] 9.62 µM | [51] 17.2 µM | [52] 22.4 µM | [53] 11.3 µM | [54] 16.4 µM | [55] 28.9 µM | [56] 3.46 µM | [57] 11.9 µM | [58] 11.7 µM | [59] 13.7 µM

NNC(=O)CCC(NS(=O)(=O)c1ccc(Cl)cc1)C(=O)NN (configuration not stated)
> 100 µM: [15]
inactive: [1] > 100 µM | [2] > 100 µM | [3] > 100 µM | [4] > 100 µM | [5] > 100 µM | [6] > 100 µM | [7] > 100 µM | [8] > 100 µM | [9] > 100 µM | [10] > 100 µM | [11] > 100 µM | [12] > 100 µM | [13] > 100 µM | [14] > 100 µM | [16] > 100 µM | [17] > 100 µM | [18] > 100 µM | [19] > 100 µM | [20] > 100 µM | [21] > 100 µM | [23] > 100 µM | [24] > 100 µM | [25] > 100 µM | [26] > 100 µM | [27] > 100 µM | [28] > 100 µM | [29] > 100 µM | [30] > 100 µM | [31] > 100 µM | [32] > 100 µM | [33] > 100 µM | [34] > 100 µM | [35] > 100 µM | [36] > 100 µM | [37] > 100 µM | [38] > 100 µM | [39] > 100 µM | [40] > 100 µM | [41] > 100 µM | [42] > 100 µM | [43] > 100 µM | [44] > 100 µM | [45] > 100 µM | [46] > 100 µM | [47] > 100 µM | [48] > 100 µM | [49] > 100 µM | [50] > 100 µM | [51] > 100 µM | [52] > 100 µM | [53] > 100 µM | [54] > 100 µM | [55] > 100 µM | [56] > 100 µM | [57] > 100 µM | [58] > 100 µM | [59] > 100 µM
